Experiments:
[1] = test system: Plasmodium falciparum; experiment: Antimalarial activity against Plasmodium falciparum Dd2; type: functional, organism-based
[2] = test system: Plasmodium falciparum; experiment: Antimalarial activity against Plasmodium falciparum 3D7; type: functional, organism-based
[3] = biological target: T1, 1-deoxy-D-xylulose 5-phosphate reductoisomerase (Escherichia coli K-12, UniProt P45568); experiment: Inhibition of recombinant Escherichia coli DXR
T1 sequence (P45568 whole entry): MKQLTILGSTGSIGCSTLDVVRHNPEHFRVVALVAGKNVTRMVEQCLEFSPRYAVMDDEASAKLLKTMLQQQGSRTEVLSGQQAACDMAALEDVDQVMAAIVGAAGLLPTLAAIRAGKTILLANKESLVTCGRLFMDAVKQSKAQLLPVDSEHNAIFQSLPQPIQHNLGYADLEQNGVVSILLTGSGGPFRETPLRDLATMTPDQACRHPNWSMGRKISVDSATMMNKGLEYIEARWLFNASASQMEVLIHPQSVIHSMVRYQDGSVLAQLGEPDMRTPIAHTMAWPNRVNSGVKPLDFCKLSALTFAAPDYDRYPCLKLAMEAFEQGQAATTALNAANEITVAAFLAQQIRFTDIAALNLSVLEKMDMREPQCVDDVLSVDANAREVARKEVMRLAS

CC(=O)N(O)CCC(c1ccccc1)P(=O)(O)O (stereo not given)
IC50 [1]: 350 nM
IC50 [2]: 550 nM

O=CN(O)CCCP(=O)(O)O [FOSMIDOMYCIN]
IC50 [1]: 360 nM
IC50 [2]: 1100 nM

O=CN(O)CCC(c1ccc(Cl)c(Cl)c1)P(=O)(O)O (stereo not given)
IC50 [3]: 59 nM
IC50 [1]: 28 nM
IC50 [2]: 90 nM

CC(=O)N(O)CCC(c1ccc(Cl)c(Cl)c1)P(=O)(O)O (stereo not given)
IC50 [3]: 119 nM
IC50 [1]: 90 nM
IC50 [2]: 250 nM

CC(=O)N(O)CCC(c1ccc(C)cc1)P(=O)(O)O (stereo not given)
IC50 [3]: 396 nM
IC50 [1]: 220 nM
IC50 [2]: 950 nM

CC(=O)N(O)CCC(c1ccc(Cl)cc1)P(=O)(O)O (stereo not given)
IC50 [3]: 99 nM
IC50 [1]: 95 nM
IC50 [2]: 350 nM

COc1ccc(C(CCN(O)C(C)=O)P(=O)(O)O)cc1 (stereo not given)
IC50 [3]: 459 nM
IC50 [1]: 270 nM
IC50 [2]: 850 nM

CC(=O)N(O)CCCP(=O)(O)O [FR-900098]
IC50 [3]: 30 nM
IC50 [1]: 180 nM
IC50 [2]: 320 nM

COc1ccc(C(CCN(O)C=O)P(=O)(O)O)cc1 (stereo not given)
IC50 [3]: 156 nM
IC50 [1]: 200 nM
IC50 [2]: 360 nM
